Results taken from the supplement of paper PMC10307832.

Columns and labels:
Assay in all cases: relative viability (nuclei count vs DMSO), 5 days (fraction); higher = more cells survive
[1] = compound: CCN(CCO)CCCC(C)Nc1ccnc2cc(Cl)ccc12 [Hydroxychloroquine] + O=C(c1cc(Cc2n[nH]c(=O)c3ccccc23)ccc1F)N1CCN(C(=O)C2CC2)CC1 [Olaparib] (partner 8 µM)
Method in brief: (§1)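 Relative viability equals treated-well nuclei counts divided by vehicle-well nuclei counts. Counts came from 4× images of lung cancer cell lines grown in 1536-well plates for 5 days after pin-tool dosing on the day after seeding. Dosing used one drug alone or a fixed anchor-drug dose plus five library-drug doses (not always all listed) in √10 steps, and values are medians of duplicate plates.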

[2] = compound: CCN(CCO)CCCC(C)Nc1ccnc2cc(Cl)ccc12 [Hydroxychloroquine] + NC(=O)Nc1cc(-c2cccc(F)c2)sc1C(=O)N[C@H]1CCCNC1 [AZD7762] (partner 0.2 µM)
Method in brief: as §1

[3] = compound: CCN(CCO)CCCC(C)Nc1ccnc2cc(Cl)ccc12 [Hydroxychloroquine] + CS(=O)(=O)CCNCc1ccc(-c2ccc3ncnc(Nc4ccc(OCc5cccc(F)c5)c(Cl)c4)c3c2)o1 [Lapatinib] (partner 2 µM)
Method in brief: as §1

[4] = compound: CCN(CCO)CCCC(C)Nc1ccnc2cc(Cl)ccc12 [Hydroxychloroquine] + Nc1ncn([C@H]2C[C@H](O)[C@@H](CO)O2)c(=O)n1 [Decitabine] (partner 2 µM)
Method in brief: as §1

Cell Line | relative viability ([1]; first compound 0.5 µM) | relative viability ([1]; first compound 1.581 µM) | relative viability ([1]; first compound 5 µM) | relative viability ([1]; first compound 15.81 µM) | relative viability ([1]; first compound 50 µM) | relative viability ([2]; first compound 0.5 µM) | relative viability ([2]; first compound 1.581 µM) | relative viability ([2]; first compound 5 µM) | relative viability ([2]; first compound 15.81 µM) | relative viability ([2]; first compound 50 µM) | relative viability ([3]; first compound 0.5 µM) | relative viability ([3]; first compound 1.581 µM) | relative viability ([3]; first compound 5 µM) | relative viability ([3]; first compound 15.81 µM) | relative viability ([3]; first compound 50 µM) | relative viability ([4]; first compound 0.5 µM) | relative viability ([4]; first compound 1.581 µM) | relative viability ([4]; first compound 5 µM) | relative viability ([4]; first compound 15.81 µM) | relative viability ([4]; first compound 50 µM)
201T | 0.788 | 0.821 | 0.826 | 0.857 | 0.829 | 0.571 | 0.809 | 0.759 | 0.59 | 0.658 | 1.05 | 1.02 | 1.02 | 1.02 | 1.05 | 0.858 | 0.834 | 0.852 | 0.864 | 0.844
A-427 | 0.816 | 0.702 | 0.61 | 0.691 | 0.816 | 0.727 | 0.802 | 0.769 | 0.696 | 0.671 | 0.996 | 0.955 | 1.07 | 1.01 | 1.09 | 0.539 | 0.551 | 0.585 | 0.509 | 0.479
ABC-1 | 0.98 | 0.889 | 0.797 | 0.847 | 0.727 | 0.754 | 0.917 | 0.797 | 0.995 | 0.711 | 0.987 | 1.09 | 1.13 | 1.43 | 1.23 | 1.15 | 1.1 | 1.09 | 1.35 | 0.906
BEN | 0.843 | 1.08 | 1.04 | 1.03 | 1.02 | 0.795 | 0.652 | 0.767 | 0.776 | 0.759 | 0.704 | 0.553 | 0.609 | 0.707 | 0.891 | 0.764 | 0.649 | 0.64 | 0.75 | 0.636
CAL-12T | 0.693 | 0.63 | 0.782 | 0.689 | 0.68 | 0.571 | 0.804 | 0.596 | 0.599 | 0.659 | 0.752 |  | 0.659 | 0.633 | 0.691 |  |  |  |  | 
COR-L23 | 0.315 | 0.345 | 0.381 | 0.353 | 0.387 |  |  |  |  |  | 0.681 | 0.992 | 0.992 | 1.23 | 1.21 | 0.451 | 0.452 | 0.397 | 0.416 | 0.534
COR-L 105 | 0.675 | 0.612 | 0.596 | 0.519 | 0.744 |  |  |  |  |  | 0.369 | 0.37 | 0.346 | 0.318 | 0.327 | 0.669 | 0.542 | 0.588 | 0.583 | 0.605
Calu-6 | 0.65 | 0.607 | 0.615 | 0.673 | 0.569 |  |  |  |  |  | 1.05 | 1.18 | 0.991 | 1.02 | 1.01 |  |  |  |  | 
ChaGo-K-1 | 0.385 | 0.381 | 0.422 | 0.4 | 0.422 | 0.775 | 0.88 | 0.821 | 0.901 | 0.998 |  |  |  |  |  | 0.515 | 0.545 | 0.538 | 0.496 | 0.518
EKVX | 0.978 | 0.755 | 0.769 | 0.763 | 1.04 | 0.549 | 0.772 | 0.753 | 0.653 | 0.759 | 0.246 | 0.181 | 0.224 | 0.168 | 0.199 | 0.346 | 0.308 | 0.334 | 0.407 | 0.372
EMC-BAC-2 | 0.508 | 0.439 | 0.472 | 0.484 | 0.442 | 1.12 | 0.887 | 1.01 | 1.07 | 1.11 | 0.96 | 0.722 | 0.897 | 0.832 | 0.956 | 1.01 | 0.863 | 0.965 | 0.952 | 0.952
EPLC-272H |  | 0.891 | 0.94 | 0.929 | 0.73 | 0.168 | 0.207 | 0.214 | 0.232 | 0.193 | 0.988 | 0.879 | 0.77 | 0.877 | 1.06 | 0.319 | 0.403 | 0.403 | 0.321 | 0.372
H3255 | 0.592 | 0.562 | 0.544 | 0.582 | 0.55 | 0.857 | 0.897 | 0.875 | 0.882 | 0.891 | 0.272 | 0.243 | 0.205 | 0.248 | 0.202 | 0.612 | 0.536 | 0.593 | 0.718 | 0.592
HARA | 0.64 | 0.838 | 1.04 | 1.14 | 0.487 | 0.263 | 0.373 | 0.405 | 0.219 | 0.376 | 0.712 | 0.731 | 0.597 | 0.765 | 0.635 | 0.492 | 0.539 | 0.524 | 0.534 | 0.519
HCC-15 | 0.688 | 0.675 | 0.735 | 0.817 | 0.626 | 1.29 | 1.15 | 1.11 | 1.35 | 1.49 | 0.847 | 0.812 | 0.873 | 0.867 | 0.836 | 0.674 | 0.648 | 0.627 | 0.666 | 0.702
HCC-44 | 0.964 | 1.02 | 1.03 | 1.01 | 1.04 | 1.07 | 1.04 | 1.08 | 1.06 | 0.975 | 0.989 | 1.07 | 1.08 | 1.06 | 1.04 | 0.966 | 0.978 | 0.974 | 0.939 | 0.914
HCC-78 | 0.899 | 0.841 | 0.794 | 0.864 | 0.923 | 0.595 | 0.754 | 0.605 | 0.661 | 0.641 | 1.29 | 0.706 | 0.492 | 0.746 | 0.764 | 0.655 | 0.638 | 0.651 | 0.676 | 0.73
HCC-366 | 0.312 | 0.362 | 0.354 | 0.342 | 0.375 | 0.228 | 0.381 | 0.289 | 0.235 | 0.384 | 0.968 | 1.06 | 1.02 | 1.15 | 1.19 | 0.314 | 0.348 | 0.315 | 0.316 | 0.34
